Laboratory results: patent US20070270421A1, “Novel pyridine Derivative and Pyrimidine Derivative (1)” (priority 2004, published 2007)

target: T1, HGFR (His6-HGFR cytoplasmic domain) (Homo sapiens, UniProt P08581); test: Inhibitory activity against HGFR tyrosine kinase activity (HTRF); type: biochemical; conditions: biotin-poly(GT), ATP, 30° C. 10 min, read-out: IC50 (concentration necessary to inhibit HGFR kinase activity by 50%)
T1 construct: made in house; host or cells: Spodoptera frugiperda Sf9 insect cells (baculovirus, pFastBac-HT)
T1 sequence (P08581 956-1390 limits assumed): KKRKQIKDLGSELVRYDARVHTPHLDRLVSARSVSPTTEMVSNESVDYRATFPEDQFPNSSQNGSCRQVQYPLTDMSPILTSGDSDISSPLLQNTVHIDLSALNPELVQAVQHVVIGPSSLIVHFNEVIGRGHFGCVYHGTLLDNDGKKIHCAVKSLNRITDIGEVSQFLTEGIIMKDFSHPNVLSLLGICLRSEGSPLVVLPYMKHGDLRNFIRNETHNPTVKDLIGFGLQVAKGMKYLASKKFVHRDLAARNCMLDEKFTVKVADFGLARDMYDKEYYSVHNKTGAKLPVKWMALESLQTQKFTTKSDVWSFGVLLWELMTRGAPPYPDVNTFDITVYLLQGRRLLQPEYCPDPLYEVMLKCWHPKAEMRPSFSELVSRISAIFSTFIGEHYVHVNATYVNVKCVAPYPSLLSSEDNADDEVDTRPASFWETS
Method in brief: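 Baculovirus/Sf9-expressed N-terminal His6-tagged HGFR cytoplasmic domain (from Lys974), Ni-NTA purified, phosphorylated biotin-poly(GT) in Hepes pH 7.4 with MgCl2/MnCl2. ATP added as 4 μM solution; 10 min at 30° C., stopped with EDTA. Phosphotyrosine product detected by HTRF.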

Question: How did the IC50 turn out when CN(C)C1CCN(C(=O)Nc2cc(Oc3ccc(NC(=S)NC(=O)Cc4ccccc4)cc3F)ccn2)CC1 [Example 38, 2-{[4-(Dimethylamino)piperidin-1-yl]carbonylamino}-4-{2-fluoro-4-[3-(2-phenylacetyl)thioureido]phenoxy}pyridine] was run?
Answer: 0.026 µM

Question: With CN(C)[C@H]1CCN(C(=O)Nc2cc(Oc3ccc(NC(=S)NC(=O)Cc4ccccc4)cc3F)ccn2)C1 [Example 246, 2-{[(3S)-3-Dimethylaminopyrrolidin-1-yl]carbonylamino}-4-{2-fluoro-4-[3-(2-phenylacetyl)thioureido]phenoxy}pyridine] as the compound, how does the IC50 read?
Answer: 0.079 µM

Question: With CN(C)C(=O)Nc1cc(Oc2ccc(NC(=O)NC(=O)Cc3ccccc3)c(F)c2)ccn1 [Example 54, 3-{4-[3-Fluoro-4-(3-phenylacetylureido)phenoxy]pyridin-2-yl}-1,1-dimethylurea] as the compound, how does the IC50 read?
Answer: 0.043 µM

Question: How did the IC50 turn out when CN(C)[C@H]1CCN(C(=O)Nc2cc(Oc3ccc(NC(=O)NC(=O)Cc4ccccc4)cc3F)ccn2)C1 [Example 250, 2-{[(3S)-3-Dimethylaminopyrrolidin-1-yl]carbonylamino}-4-{2-fluoro-4-[3-(2-phenylacetyl)ureido]phenoxy}pyridine] was run?
Answer: 0.068 µM

Question: For CN(C)CCN1CCC(N(C)C(=O)Nc2cc(Oc3ccc(NC(=S)NC(=O)Cc4ccc(F)cc4)c(F)c3)ccn2)CC1 [Example 183], which IC50 is on record?
Answer: 0.16 µM

Question: CCN(CC)CCCN(C)C(=O)Nc1cc(Oc2ccc(NC(=O)CC(=O)Nc3ccc(F)cc3)c(F)c2)ccn1 [Example 83] was tested. Which IC50 did it give?
Answer: 0.082 µM

Question: For O=C(Cc1ccc(F)cc1)NC(=S)Nc1ccc(Oc2cc(NC(=O)N3CCOCC3)ncn2)c(F)c1 [Example 4, Morpholine-4-carboxylic acid [6-[2-fluoro-4-{3-[2-(4-fluorophenyl)acetyl]thioureido}phenoxy)pyrimidin-4-yl]amide], which IC50 is on record?
Answer: 0.03 µM

Question: For CN1CCN(CCCN(C)C(=O)Nc2cc(Oc3ccc(NC(=O)CC(=O)Nc4ccc(F)cc4)c(F)c3)ccn2)CC1 [Example 93, N-[2-Fluoro-4-(2-{3-methyl-3-[3-(4-methylpiperazin-1-yl)propyl]ureido}pyridin-4-yloxy)phenyl]-N′-(4-fluorophenyl)malonamide], which IC50 is on record?
Answer: 0.093 µM

Question: For CC(=O)N1CCC(N(C)C(=O)Nc2cc(Oc3ccc(NC(=S)NC(=O)Cc4ccc(F)cc4)cc3F)ccn2)CC1 [Example 301, 1-(1-Acetylpiperidin-4-yl)-3-[4-(2-fluoro-4-{3-[2-(4-fluorophenyl)acetyl]thioureido}phenoxy)pyridin-2-yl]-1-methylurea], which IC50 is on record?
Answer: 0.028 µM

Question: For CN(C)C1CN(C(=O)Nc2cc(Oc3ccc(NC(=S)NC(=O)Cc4ccc(F)cc4)cc3F)ncn2)C1 [Example 208, 3-Dimethylaminoazetidine-1-carboxylic acid [6-(2-fluoro-4-{3-[2-(4-fluorophenyl)acetyl]thioureido}phenoxy)pyrimidin-4-yl]amide], which IC50 is on record?
Answer: 0.05 µM

Question: Which IC50 does the source give for CN(C)CC1CCN(C(=O)Nc2cc(Oc3ccc(NC(=S)NC(=O)Cc4ccccc4)cc3F)ccn2)CC1 [Example 311, 2-{[4-(Dimethylaminomethyl)piperidin-1-yl]carbonylamino}-4-(2-fluoro-4-{3-[2-(phenyl)acetyl]thioureido}phenoxy)pyridine] here?
Answer: 0.048 µM

Question: Which IC50 does the source give for O=C(Cc1ccc(F)cc1)NC(=O)Nc1ccc(Oc2ccnc(NC(=O)N3CCC(N4CCC4)CC3)c2)cc1F [Example 178, 4-(Azetidin-1-yl)piperidine-1-carboxylic acid [4-(3-fluoro-4-{3-[2-(4-fluorophenyl)acetyl]ureido}phenoxy)pyridin-2-yl]amide] here?
Answer: 0.063 µM

Question: O=C(CC(=O)Nc1ccc(Oc2ccnc(NC(=O)N3CCCC3)c2)c(Cl)c1)Nc1ccc(F)cc1 [Example 67, N-(3-Chloro-4-{2-[(pyrrolidine-1-carbonyl)amino]pyridin-4-yloxy}phenyl)-N′-(4-fluorophenyl)malonamide] was tested. Which IC50 did it give?
Answer: 0.067 µM

Question: With CN1CCC(N2CCN(C(=O)Nc3cc(Oc4ccc(NC(=S)NC(=O)Cc5ccccc5)cc4F)ccn3)CC2)CC1 [Example 326, 4-{2-Fluoro-4-[3-(2-phenylacetyl)thioureido]phenoxy}-2-{[4-(1-methylpiperidin-4-yl)piperazin-1-yl]carbonylamino}pyridine] as the compound, how does the IC50 read?
Answer: 0.13 µM

Question: For O=C(Cc1ccccc1)NC(=S)Nc1ccc(Oc2ccnc(NC(=O)N3CC(N4CCCC4)C3)c2)c(F)c1 [Example 261, 3-(Pyrrolidin-1-yl)azetidine-1-carboxylic acid {4-[2-fluoro-4-(3-phenylacetylthioureido)phenoxy]pyridin-2-yl}amide], which IC50 is on record?
Answer: 0.1 µM

Question: With CN1CC(N2CCC(N(C)C(=O)Nc3cc(Oc4ccc(NC(=S)NC(=O)Cc5ccc(F)cc5)cc4)ccn3)CC2)C1 [Example 331, 3-(4-{4-[3-(4-Fluorophenyl)acetylthioureido]phenoxy}pyridin-2-yl)-1-methyl-1-[1-(1-methylazetidin-3-yl)piperidin-4-yl]urea] as the compound, how does the IC50 read?
Answer: 0.084 µM

Question: CN(C)C[C@@H]1CCN(C(=O)Nc2cc(Oc3ccc(NC(=S)NC(=O)Cc4ccc(F)cc4)c(F)c3)ccn2)C1 [Example 219, (3S)-3-Dimethylaminomethylpyrrolidine-1-carboxylic acid [4-(3-fluoro-4-{3-[2-(4-fluorophenyl)acetyl]thioureido}phenoxy)pyridin-2-yl]amide] was tested. Which IC50 did it give?
Answer: 0.042 µM

Question: For CN1CCC[C@H](N(C)C(=O)Nc2cc(Oc3ccc(NC(=S)NC(=O)Cc4ccc(F)cc4)cc3F)ncn2)C1 [Example 322, 3-[6-(2-Fluoro-4-{3-[2-(4-fluorophenyl)acetyl]thioureido}phenoxy)pyrimidin-4-yl]-1-methyl-1-[(3S)-1-methylpiperidin-3-yl]urea], which IC50 is on record?
Answer: 0.043 µM

Question: How did the IC50 turn out when O=C(Cc1ccccc1)NC(=O)Nc1ccc(Oc2ccnc(NC(=O)N3CCCC3)c2)cc1Cl [Example 47, Pyrrolidine-1-carboxylic acid {4-[3-chloro-4-(3-phenylacetylureido)phenoxy]pyridin-2-yl}amide] was run?
Answer: 0.1 µM

Question: Which IC50 does the source give for Cc1cc(Oc2ccnc(NC(=O)N(C)C)c2)ccc1NC(=O)CC(=O)Nc1ccc(F)cc1 [Example 86, N-{4-[2-(3,3-Dimethylureido)pyridin-4-yloxy]-2-methylphenyl}-N′-(4-fluorophenyl)malonamide] here?
Answer: 0.055 µM

Question: Which IC50 does the source give for O=C(Cc1ccccc1)NC(=S)Nc1ccc(Oc2ccnc(NC(=O)N3CCC(N4CCC(O)CC4)CC3)c2)c(F)c1 [Example 185, 4-{2-Fluoro-4-[3-(2-phenylacetyl)thioureido]phenoxy}-2-{[4-(4-hydroxypiperidin-1-yl)piperidin-1-yl]carbonylamino}pyridine] here?
Answer: 0.047 µM

Question: How did the IC50 turn out when CN1CC(N2CCN(C(=O)Nc3cc(Oc4ccc(NC(=O)NC(=O)Cc5ccccc5)cc4F)ccn3)CC2)C1 [Example 377, 4-(1-Methylazetidin-3-yl)piperazine-1-carboxylic acid {4-[2-fluoro-4-(3-phenylacetylureido)phenoxy]pyridin-2-yl}amide] was run?
Answer: 0.068 µM

Question: CN(C)CCN1CCN(C(=O)Nc2cc(Oc3ccc(NC(=S)NC(=O)Cc4ccccc4)cc3F)ccn2)CC1 [Example 309, 2-{[4-(2-Dimethylaminoethyl)piperazin-1-yl]carbonylamino}-4-(2-fluoro-4-{3-[2-(phenyl)acetyl]thioureido}phenoxy)pyridine] was tested. Which IC50 did it give?
Answer: 0.054 µM

Question: CN(C)CCN1CCC(N(C)C(=O)Nc2cc(Oc3ccc(NC(=S)NC(=O)Cc4ccc(F)cc4)cc3F)ncn2)CC1 [Example 184, 1-[1-(2-Dimethylaminoethyl)piperidin-4-yl]-3-[6-(2-fluoro-4-{3-[2-(4-fluorophenyl)acetyl]thioureido}phenoxy)pyrimidin-4-yl]-1-methylurea] was tested. Which IC50 did it give?
Answer: 0.13 µM

Question: Which IC50 does the source give for CN(C)CCN1CCC(N(C)C(=O)Nc2cc(Oc3ccc(NC(=O)NC(=O)Cc4ccccc4)cc3F)ccn2)CC1 [Example 353, 1-[1-(2-Dimethylaminoethyl)piperidin-4-yl]-3-{4-[2-fluoro-4-(3-phenylacetylureido)phenoxy]pyridin-2-yl}-1-methylurea] here?
Answer: 0.18 µM

Question: Which IC50 does the source give for O=C(CC(=O)Nc1ccc(F)cc1F)Nc1ccc(Oc2ccnc(NC(=O)N3CCCC3)c2)c(F)c1 [Example 57, N-(3-Fluoro-4-{2-[(pyrrolidine-1-carbonyl)amino]pyridin-4-yloxy}phenyl)-N′-(2,4-difluorophenyl)malonamide] here?
Answer: 0.048 µM

Question: For CN(C)C[C@H]1CCN(C(=O)Nc2cc(Oc3ccc(NC(=S)NC(=O)Cc4ccc(F)cc4)cc3F)ncn2)C1 [Example 209, 4-{[(3R)-3-(Dimethylaminomethyl)pyrrolidin-1-yl]carbonylamino}-6-(2-fluoro-4-{3-[2-(4-fluorophenyl)acetyl]thioureido}phenoxy)pyrimidine], which IC50 is on record?
Answer: 0.065 µM

Question: Which IC50 does the source give for O=C(Cc1ccccc1)NC(=S)Nc1ccc(Oc2ccnc(NC(=O)N3CCC(CN4CCC4)CC3)c2)c(F)c1 [Example 395, 4-(Azetidin-1-ylmethyl)piperidine-1-carboxylic acid {4-[2-fluoro-4-(3-phenylacetylthioureido)phenoxy]pyridin-2-yl}amide] here?
Answer: 0.047 µM

Question: O=C(Cc1ccc(F)cc1)NC(=S)Nc1ccc(Oc2cc(NC(=O)N3CCC(CN4CCC4)CC3)ncn2)c(F)c1 [Example 392, 4-(Azetidin-1-ylmethyl)piperidine-1-carboxylic acid [6-(2-fluoro-4-{3-[2-(4-fluorophenyl)acetyl]thioureido}phenoxy)pyrimidin-4-yl]amide] was tested. Which IC50 did it give?
Answer: 0.055 µM

Question: How did the IC50 turn out when CN(C)CCN1CCN(C(=O)Nc2cc(Oc3ccc(NC(=O)NC(=O)Cc4ccccc4)cc3F)ccn2)CC1 [Example 364, 2-{[4-(2-Dimethylaminoethyl)piperazin-1-yl]carbonylamino}-4-{2-fluoro-4-[3-(2-phenylacetyl)ureido]phenoxy}pyridine] was run?
Answer: 0.097 µM

Question: CN(C)C1CN(C2CCN(C(=O)Nc3cc(Oc4ccc(NC(=S)NC(=O)Cc5ccc(F)cc5)cc4)ccn3)CC2)C1 [Example 195, 4-[3-(Dimethylamino)azetidin-1-yl]piperidine-1-carboxylic acid [4-(4-{3-[2-(4-fluorophenyl)acetyl]thioureido}phenoxy)pyridin-2-yl]amide] was tested. Which IC50 did it give?
Answer: 0.057 µM
